Experimental data taken from patent publication US6146616A, “Antioxidant and/or antielastase composition based on lupine oil” (priority 1997, dated 2000).

Assays:
[1] = test system: plasmid DNA (pBS); assay: 3-D test: protection of adsorbed plasmid DNA against singlet oxygen generated by illuminated methylene blue; assay type: biochemical; details: for % Specific inhibition: methylene blue + light; for % Aspecific inhibition: on predamaged plasmid pBS^UV, absence of ROS
From the text: The test used is a biological system of detecting damage (3-D test) on DNA captured on a microplate (Analytical Biochemistry, 1995, 232, 37-42). The damage is recognized by the repair enzymes and repaired by purified cellular extracts. The repair of the lesions involves a phase for excision and then resynthesis of the damaged and excised DNA fragment. During the reparative synthesis stage, one or more modified nucleotides (digoxigenylated dUTP or DIG-11-dUTP) are incorporated into the DNA. These nucleotides are then recognized by anti-DIG antibodies coupled to alkaline phosphatase. An alkaline phosphatase substrate (Lumi-Phos 530) is then added and the luminescent signal emitted is measured by a luminometer (Lumax 2, marketed by the company S.F.R.I.). The intensity of the signal obtained depends on the different parameters (extracts, salt concentration, quantity of DNA, reaction time and the like) including that relating to the number of lesions repaired, and therefore of lesions present on the DNA. A dose-response relationship is observed within the limit of 1 to 15 lesions per 6 kilobases for most of the lesions.
This system is capable of repairing any type of lesion since all the enzymes for repairing DNA lesions are present and active in the extracts. The oxidative damage is therefore recognized in this system.
The damage is caused by reactive oxygen species (ROS) by means of a system which induces the formation of lesions on the DNA adsorbed in a well, leading to the reading of a reparative synthesis signal. In the presence of a compound or of a mixture of compounds which make it possible to protect DNA as a result, for example, of antioxidant or anti-free radical properties, a decrease or even an elimination of the repair signal, a reflection of the quantity of lesions, is observed.
ROS ^1 O2, a powerful electrophile which has a very short life, is generated by illumination of methylene blue. It therefore reacts very rapidly with the bases in the DNA and produces various types of damage such as modification of bases or loss of bases, which are very genotoxic.
Ultrapurified plasmid DNA (pBS) (predominantly supercoiled form) is placed in contact with the wells sensitized by poly-lysine for 30 minutes at 30° C., with gentle shaking, at a concentration of 1 μg/ml in a volume of 50 μl. Under these conditions, the adsorption of the DNA is quantitative (about 40 ng per well).
A positive control for repair, consisting of a plasmid predamaged by UV-C (called pBS^UV), is added.
After incubation, the wells are washed twice with a solution of PBS supplemented with 0.1% Tween 20.
A stock solution of methylene blue at 10 μg/ml is diluted to a concentration of 4 ng/ml in ultrapure water (MilliQ quality from Millipore).
This solution is mixed in an equal volume with various dilutions of the samples, and 50 μl of the mixture (at 2 ng/ml of methylene blue) are added to the wells containing the adsorbed plasmid DNA. The wells are placed on ice and illuminated for 20 minutes with 2 lamps of 100 W, 30 cm apart.
The four samples were tested at 3 dilutions.
The dilutions were made 2X, in propylene glycol, in order to obtain the desired dilutions after addition of a volume of methylene blue solution of 4 ng/ml.
In order to check that the decrease in the repair signal is not aspecific, the same dilutions (IX) are incubated under the same conditions on pBS^UV. […] An inhibition of the control repair signal for pBS^UV can, for example, be explained by a direct interaction of the sample with the DNA which blocks access of the lesions to the repair enzymes.
These different dilutions were incubated on the nondamaged DNA (pBS) and illuminated in the absence of methylene blue. This test makes it possible to check that the product tested is not genotoxic.
They are expressed as the percentage residual repair inhibition. The 0% value corresponds to the repair signal under the condition of methylene blue treatment alone. […]

[2] = test system: human epidermal keratinocytes; assay: Anti-free radical activity: hydroperoxides by fluorometry in UVA-irradiated keratinocytes; assay type: cell-based; details: Keratinocyte, light or radiation study, 1.5 h, 0.1% (w/v), UVA 90 minutes (10 J/cm^2), read-out: % protection
From the text: The cells are human epidermal keratinocytes. […] The cells are used at the sixth passage, they are inoculated at 1×10^5 cells per well into 6-well culture plates. They are used at confluence.
It is quantified by a fluorometric method which detects the quantity of hydroperoxides which are metabolites of free radicals. An appropriate probe which converts to a fluorescent derivative in their presence is used, according to the method described by Keston A. S. and Brandt R. (The fluorometric analysis of ultramicro quantities of hydrogen peroxide, Anal. Biochem. 11, 1965, 1-5).
The free radicals are generated at the cell culture level by irradiation with ultraviolet A rays. […]
After irradiation, the keratinocytes are lyzed by the action of ultrasound. The cellular lysates are transferred into 96-well plates and analyzed by fluorimetry with the aid of a plate analyzer (excitation: 355 nm, emission: 460 nm).
The results are expressed in fluorescence unit/culture well.
The percentage protection of the test products or of the reference products R1 and R2 was calculated with the aid of the following formula: [formula]
By convention, when the values measured in the presence of the test products or in the presence of the reference products were less than those of the "non-irradiated control", the percentage protection was expressed as 100%.

[3] = target: T1, pancreatic elastase (Sus scrofa, UniProt P00772); assay: Antielastase activity in sections of human skin explant (intact elastic fibers, image analysis); assay type: biochemical; details: for % Inhibition of the elastase activity: elastase 5 IU/ml, 3 hours, 37° C.; for Inhibition (of elastase, graded 0 to +++): Table 8
T1 construct: purchased Sigma E0258
T1 sequence (P00772 27-266): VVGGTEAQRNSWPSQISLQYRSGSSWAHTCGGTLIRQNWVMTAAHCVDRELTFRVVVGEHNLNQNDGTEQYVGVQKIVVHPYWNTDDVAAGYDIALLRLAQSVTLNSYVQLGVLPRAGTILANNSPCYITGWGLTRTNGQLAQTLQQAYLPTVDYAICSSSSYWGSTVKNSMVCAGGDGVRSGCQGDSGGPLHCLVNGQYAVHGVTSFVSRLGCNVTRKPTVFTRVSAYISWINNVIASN
From the text: The study of the antielastase activity represents a good indication of skin aging since it is now well known that the degradation of the elastic fibers present in the dermis involves endogenous elastases. The test used makes it possible to study the antielastase activity in vitro in sections of human skin explant. An application of purified elastase on a limited portion of the section is accompanied by degradation of the endogenous elastic fibers. The elastic fibers are stained with (+)-catechin. The percentage of intact elastic fibers per optical field is evaluated by image analysis. A product having antielastase activity makes it possible to preserve the integrity of the elastic fibers in the presence of purified elastase.
A pancreatic elastase (type IV, reference E0258, Sigma) is used. The medium for incubation of the human skin sections ("vehicle") is 0.1 M Herpes buffer, adjusted to pH 7.5 with sodium hydroxide containing 0.1 M sodium chloride.
The skin sections are produced from surgical waste collected after abdominal plastic surgery. The donor was a person. Explants of 1 cm in diameter are produced and they are deposited on a cork support and they are frozen at -80° C. Transverse sections 6 µm thick are produced with a cryomicrotome. The sections are fixed on glass slides and maintained hydrated with the vehicle during the test.
The test products are tested at 0.5; 1 and 5% (v/v) in the vehicle.
The elastatinal is tested at 0.01 and 0.1% (w/v) in the vehicle.
The mercuric chloride is tested at 0.025 and 0.125% (w/v) in the vehicle.
The dilutions of the test products and of the reference products are deposited on the skin sections in an amount of 100 μl per section (0.32 cm^2 in surface area), and preincubated for ten minutes at 37° C. Filter paper strips (0.16 cm^2 in surface area) impregnated with the vehicle alone (control vehicle) or containing pancreatic elastase at 5 international units (IU)/ml (control enzyme) are deposited on the sections. The slides are placed in a humid chamber at 37° C. for three hours.
After incubation, the sections are rinsed with the incubation medium and stained with (+)-catechin. The activity of the enzyme in the absence and in the presence of the test products or of the reference products is evaluated by image analysis: the image of the stained sections is digitized on a video screen; a software for image analysis makes it possible to measure the amounts of gray in the binary images; the surface area occupied by the intact elastic fibers is measured. The results are expressed as percentage of intact elastic fibers per optical field.
The percentage inhibition of the elastase activity of the test products and of the reference products is calculated with the aid of the following formula: [formula]
The antielastase activity is determined under the conditions indicated in IV above.

SMILES: CC1=C(/C=C/C(C)=C/C=C/C(C)=C/C=C/C=C(C)/C=C/C=C(C)/C=C/C2=C(C)CCCC2(C)C)C(C)(C)CCC1 [Control, β-carotene]
- % Specific inhibition ([1]; 0.01%): 45%
- % Aspecific inhibition ([1]; 0.01%): 0%
- aspecific effect / aspecificity (in words) ([1]; 0.01 to 1%): does not show, on the other hand, aspecificity
- protective properties on DNA towards singlet oxygen (in words) ([1]; 0.01 to 1%): does not exhibit a dose-effect
- % Specific inhibition ([1]; 0.1%): 53%
- % Aspecific inhibition ([1]; 0.1%): +2%
- % Specific inhibition ([1]; 1%): 45%
- % Aspecific inhibition ([1]; 1%): 0%

SMILES: CC(O)CO (centres unmarked) [Propylene glycol, propylene glycol]
- % Specific inhibition ([1]; 0.01%): 0%
- % Aspecific inhibition ([1]; 0.01%): 2%
- protective properties on DNA towards singlet oxygen (in words) ([1]; 0.01 to 1%): only very weak protective properties
- % Specific inhibition ([1]; 0.1%): 6%
- % Aspecific inhibition ([1]; 0.1%): 6%
- % Specific inhibition ([1]; 1%): 13%
- % Aspecific inhibition ([1]; 1%): 7%

SMILES: CC(=O)Oc1c(C)c(C)c2c(c1C)CCC(C)(CCCC(C)CCCC(C)CCCC(C)C)O2 (centres unmarked) [Vitamin E acetate, vitamin E acetate]
- inhibition at 0.1 % [2]: 65%

SMILES: CC(C)C[C@H](NC(=O)N[C@H](C(=O)N[C@@H](CCC(N)=O)C(=O)N[C@@H](C)C=O)[C@@H]1CCNC(=N)N1)C(=O)O [Elastatinal, elastatinal]
- % Inhibition of the elastase activity ([3]; 0.01% (w/v)): 71.5%
- % Inhibition of the elastase activity ([3]; 0.01% (w/v), listed as elastatinal): 71%
- % Inhibition of the elastase activity ([3]; 0.1% (w/v)): 59.9%
- % Inhibition of the elastase activity ([3]; 0.1% (w/v), listed as elastatinal): 60%
- Inhibition (of elastase, graded 0 to +++) ([3]; 0.1% (w/v)): strongly inhibits

SMILES: [Cl][Hg][Cl] [Mercuric chloride, mercuric chloride]
- % Inhibition of the elastase activity ([3]; 0.025% (w/v)): 18.4%
- % Inhibition of the elastase activity ([3]; 0.025% (w/v), listed as mercuric chloride): 18%
- % Inhibition of the elastase activity ([3]; 0.125% (w/v)): 39.3%
- % Inhibition of the elastase activity ([3]; 0.125% (w/v), listed as mercuric chloride): 39%
- Inhibition (of elastase, graded 0 to +++) ([3]; 0.125% (w/v)): strongly inhibits
